“And” between values parts separate entries of the source, which are not always exact repeats. Equal entries are not always repeated. Records with an inconclusive call do not appear.
System: nude mice, HT29 intrarenal xenograft, tumor weight T/C
Experiment: NCI In Vivo Anticancer Drug Screen. Data for tumor model HT29;CX-1 Human Adenocarcinoma (MER+) (intrarenal inoculation) in NU/NU Swiss (nude) mice
Settings: endpoint: mean tumor weight change, higher = larger tumour
How it was run: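 Tumor-bearing mice received test compound or vehicle, and tumor size or survival was recorded. Values are the treated-group measurement divided by the vehicle-treated control measurement.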

[1] = dose: 200.0 mg/kg/injection, schedule: Q01DX010 (sc), vehicle: saline
[2] = dose: 400.0 mg/kg/injection, schedule: Q01DX010 (sc), vehicle: saline
[3] = dose: 150.0 mg/kg/injection, schedule: Q04DX004 (sc), vehicle: saline with Tween-80
[4] = dose: 2.0 mg/kg/injection, schedule: Q01DX010 (sc), vehicle: saline
[5] = dose: 4.0 mg/kg/injection, schedule: Q01DX010 (sc), vehicle: saline
[6] = dose: 200.0 mg/kg/injection, schedule: Q01DX010 (sc), vehicle: saline with Tween-80
[7] = dose: 75.0 mg/kg/injection, schedule: Q04DX004 (sc), vehicle: saline with Tween-80

## CN1C(=O)CC2(CCN(CCCC(=O)c3ccc(F)cc3)CC2)C1=O
dose: 75.0 mg/kg/injection, schedule: Q04DX004 (sc), vehicle: suspension in saline
  T/C: 120 % of control

## OCC1(CO)COC2(CCCCC2)N1
dose: 600.0 mg/kg/injection, schedule: Q04DX004 (sc), vehicle: suspension in saline
  T/C: 115 % of control
dose: 1200.0 mg/kg/injection, schedule: Q04DX004 (sc), vehicle: suspension in saline
  T/C: 56 % of control
dose: 2400.0 mg/kg/injection, schedule: Q04DX004 (sc), vehicle: suspension in saline
  T/C: 109 % of control

## Nc1nncs1
dose: 3.13 mg/kg/injection, schedule: Q01DX010 (sc), vehicle: saline
  T/C: 97 % of control
dose: 12.5 mg/kg/injection, schedule: Q01DX010 (sc), vehicle: saline
  T/C: 84 % of control

## Nc1n[nH]c(N)n1
[1]
  T/C: 295 % of control
[2]
  T/C: 157 % of control
dose: 800.0 mg/kg/injection, schedule: Q01DX010 (sc), vehicle: saline
  T/C: 215 % of control

## CCc1ccc(C2=C(O)C(=O)C(c3ccccc3)=C(O)C2=O)cc1
dose: 75.0 mg/kg/injection, schedule: Q04DX004 (sc), vehicle: Klucel (hydroxypropylcellulose) (HPC)
  T/C: 159 % of control

## c1ccc(CN2CCOC2)cc1
dose: 25.0 mg/kg/injection, schedule: Q01DX010 (sc), vehicle: suspension in saline
  T/C: 100 % of control
dose: 50.0 mg/kg/injection, schedule: Q01DX010 (sc), vehicle: suspension in saline
  T/C: 106 % of control
dose: 100.0 mg/kg/injection, schedule: Q01DX010 (sc), vehicle: suspension in saline
  T/C: 102 % of control

## Cn1c2nc(=O)n(-c3ccccc3)c(=O)c-2nc2c1CCCC2
[3]
  T/C: 106 % of control
dose: 300.0 mg/kg/injection, schedule: Q04DX004 (sc), vehicle: saline with Tween-80
  T/C: 32 % of control

## O=NN(CCCl)C(=O)NCCCl
[4]
  T/C: 80 % of control
[5]
  T/C: 66 % of control
dose: 8.0 mg/kg/injection, schedule: Q01DX010 (sc), vehicle: saline
  T/C: 61 % of control and 70 % of control
dose: 15.0 mg/kg/injection, schedule: Q04DX004 (sc), vehicle: suspension in saline
  T/C: 100 % of control
dose: 30.0 mg/kg/injection, schedule: Q04DX004 (sc), vehicle: suspension in saline
  T/C: 69 % of control
dose: 60.0 mg/kg/injection, schedule: Q04DX004 (sc), vehicle: suspension in saline
  T/C: 41 % of control

## N/C=N/O
[2]
  T/C: 111 % of control

## CC[C@@]1(O)C[C@H](OC2CC(N(C)C)C(OC3CC(O)C(OC4CCC(=O)C(C)O4)C(C)O3)C(C)O2)c2c(cc3c(c2O)C(=O)c2c(O)cccc2C3=O)[C@H]1C(=O)OC (stereo partly specified)
dose: 0.5 mg/kg/injection, schedule: Q01DX010 (ip), vehicle: water
  T/C: 35 % of control
dose: 2.0 mg/kg/injection, schedule: Q04DX004 (ip), vehicle: water
  T/C: 114 % of control
dose: 4.0 mg/kg/injection, schedule: Q04DX004 (ip), vehicle: water
  T/C: 61 % of control
dose: 4.0 mg/kg/injection, schedule: Q04DX004 (sc), vehicle: water
  T/C: 25 % of control
dose: 8.0 mg/kg/injection, schedule: Q04DX004 (ip), vehicle: water
  T/C: 37 % of control
dose: 8.0 mg/kg/injection, schedule: Q04DX004 (sc), vehicle: water
  T/C: 4 % of control

## CNNCc1ccc(C(=O)NC(C)C)cc1
dose: 50.0 mg/kg/injection, schedule: Q01DX010 (sc), vehicle: saline
  T/C: 194 % of control
[1]
  T/C: 63 % of control and 77 % of control

## O=C(O)CSc1nc(-c2ccccc2)c(-c2ccccc2)n1-c1ccccn1
dose: 250.0 mg/kg/injection, schedule: Q04DX004 (sc), vehicle: water
  T/C: 55 % of control

## Oc1ccc(SCc2ccc(NCc3ccccc3)cc2)cc1
dose: 400.0 mg/kg/injection, schedule: Q01DX009 (sc), vehicle: saline with Tween-80
  T/C: 50 % of control
dose: 500.0 mg/kg/injection, schedule: Q01DX010 (sc), vehicle: saline with Tween-80
  T/C: 90 % of control
dose: 800.0 mg/kg/injection, schedule: Q01DX009 (sc), vehicle: saline with Tween-80
  T/C: 84 % of control
dose: 1000.0 mg/kg/injection, schedule: Q01DX010 (sc), vehicle: saline with Tween-80
  T/C: 84 % of control
dose: 1600.0 mg/kg/injection, schedule: Q01DX009 (sc), vehicle: saline with Tween-80
  T/C: 49 % of control
dose: 2000.0 mg/kg/injection, schedule: Q01DX010 (sc), vehicle: saline with Tween-80
  T/C: 54 % of control

## COc1cc(NCCCCCCCNC(C)C)c2nccc(C)c2c1
dose: 18.7 mg/kg/injection, schedule: Q04DX004 (sc), vehicle: saline
  T/C: 56 % of control
dose: 37.5 mg/kg/injection, schedule: Q04DX004 (sc), vehicle: saline
  T/C: 85 % of control
dose: 75.0 mg/kg/injection, schedule: Q04DX004 (sc), vehicle: saline
  T/C: 71 % of control

## C[C@H](N)C(=O)N[C@@H]1[C@H]2C(=C(O)C[C@@H](O)[C@@H]2O)C(=O)O[C@]1(C)C(Cl)Cl
dose: 1.5 mg/kg/injection, schedule: Q04DX004 (sc), vehicle: Klucel (hydroxypropylcellulose) (HPC)
  T/C: 33 % of control

## CC1C=NNC1=O (stereo unspecified)
[6]
  T/C: 91 % of control
dose: 400.0 mg/kg/injection, schedule: Q01DX010 (sc), vehicle: saline with Tween-80
  T/C: 64 % of control
dose: 800.0 mg/kg/injection, schedule: Q01DX010 (sc), vehicle: saline with Tween-80
  T/C: 105 % of control

## CN(C)c1ccc(C(=C2C=CC(=[N+](C)C)C=C2)c2ccc(N(C)C)cc2)cc1 (tested in a mixture with another compound)
dose: 1.25 mg/kg/injection, schedule: Q01DX010 (sc), vehicle: saline with Tween-80
  T/C: 86 % of control
dose: 2.5 mg/kg/injection, schedule: Q01DX010 (sc), vehicle: saline with Tween-80
  T/C: 111 % of control
dose: 5.0 mg/kg/injection, schedule: Q01DX010 (sc), vehicle: saline with Tween-80
  T/C: 100 % of control
dose: 10.0 mg/kg/injection, schedule: Q01DX010 (sc), vehicle: saline with Tween-80
  T/C: 60 % of control

## CC1(C)OC1CS(=O)c1ccccc1 (stereo unspecified)
dose: 200.0 mg/kg/injection, schedule: Q04DX004 (sc), vehicle: saline with Tween-80
  T/C: 61 % of control
dose: 400.0 mg/kg/injection, schedule: Q04DX004 (sc), vehicle: saline with Tween-80
  T/C: 117 % of control
dose: 800.0 mg/kg/injection, schedule: Q04DX004 (sc), vehicle: saline with Tween-80
  T/C: 94 % of control

## C[PH+](C)C.C[PH+](C)C.[Au]
dose: 2.5 mg/kg/injection, schedule: Q04DX004 (sc), vehicle: saline
  T/C: 108 % of control
dose: 20.0 mg/kg/injection, schedule: Q04DX004 (sc), vehicle: saline
  T/C: 42 % of control and 65 % of control

## O=c1cc(CCl)[nH]nc1CCl
dose: 25.0 mg/kg/injection, schedule: Q01DX010 (sc), vehicle: saline with Tween-80
  T/C: 90 % of control
dose: 50.0 mg/kg/injection, schedule: Q01DX010 (sc), vehicle: saline with Tween-80
  T/C: 156 % of control
dose: 100.0 mg/kg/injection, schedule: Q01DX010 (sc), vehicle: saline with Tween-80
  T/C: 90 % of control
[6]
  T/C: 27 % of control

## C/C(=N\N=C(/[Se])N1CC2CCC(CC2)C1)c1ccccn1
dose: 6.25 mg/kg/injection, schedule: Q04DX004 (sc), vehicle: Klucel (hydroxypropylcellulose) (HPC)
  T/C: 60 % of control
dose: 12.5 mg/kg/injection, schedule: Q04DX004 (sc), vehicle: Klucel (hydroxypropylcellulose) (HPC)
  T/C: 83 % of control
dose: 25.0 mg/kg/injection, schedule: Q04DX004 (sc), vehicle: Klucel (hydroxypropylcellulose) (HPC)
  T/C: 81 % of control
dose: 50.0 mg/kg/injection, schedule: Q04DX004 (sc), vehicle: Klucel (hydroxypropylcellulose) (HPC)
  T/C: 86 % of control

## CC(=O)OCC(OC(C)=O)C(Cl)CCl (stereo unspecified)
dose: 31.25 mg/kg/injection, schedule: Q04DX004 (ip), vehicle: saline
  T/C: 114 % of control
dose: 62.5 mg/kg/injection, schedule: Q04DX004 (ip), vehicle: saline
  T/C: 121 % of control
dose: 125.0 mg/kg/injection, schedule: Q04DX004 (ip), vehicle: saline
  T/C: 84 % of control
dose: 250.0 mg/kg/injection, schedule: Q04DX004 (ip), vehicle: saline
  T/C: 100 % of control
dose: 500.0 mg/kg/injection, schedule: Q04DX004 (ip), vehicle: saline
  T/C: 115 % of control

## CCCCCCCCCCCCCCCC(=O)OCC1OC(n2ccc(N)nc2=O)C(O)C1O (stereo unspecified)
dose: 18.75 mg/kg/injection, schedule: Q04DX004 (sc), vehicle: saline with Tween-80
  T/C: 41 % of control

## O=C(O)CSc1c(Cl)c(=O)oc2ccc(Cl)cc12
dose: 300.0 mg/kg/injection, schedule: Q04DX004 (sc), vehicle: Klucel (hydroxypropylcellulose) (HPC)
  T/C: 99 % of control

## CC[C@H]1CN2CCc3cc(OC)c(OC)cc3[C@@H]2C[C@@H]1C[C@H]1NCCc2cc(OC)c(OC)cc21
dose: 1.0 mg/kg/injection, schedule: Q01DX010 (sc), vehicle: saline
  T/C: 92 % of control
[4]
  T/C: 166 % of control
[5]
  T/C: 90 % of control

## O=C(O)C1CC1.[Ag]
[7]
  T/C: 81 % of control
[3]
  T/C: 64 % of control

## OC1CCCC2CCCNC12 (stereo unspecified)
dose: 37.5 mg/kg/injection, schedule: Q04DX004 (sc), vehicle: saline with Tween-80
  T/C: 85 % of control
[7]
  T/C: 77 % of control
[3]
  T/C: 83 % of control

— PubChem BioAssay AID206 (DTP/NCI, 2004)
